Laboratory results taken from patent publication US4542145A, “Substituted N-[(1H-1,2,4-triazol-1-yl)-alkyl]heteroarylcarboxamides” (American Cyanamid Company, priority 1984, dated 1985).
Structures can show the parent of a compound that is named as a salt.

Tests used:
[1] = target: T1, thromboxane synthetase (Rattus norvegicus, UniProt P49430); test: Inhibition of thromboxane (TXB2) formation in washed SHR platelets, RIA; assay type: cell-based, spontaneously hypertensive rats (Okamoto-Aoki); conditions: 10 min, Dose 10^-4 (unit inferred), about 10 minutes at about 37° C.
T1 construct: The platelets were isolated by centrifuging the PRP; endogenous in cells; host or cells: washed platelets from arterial blood of Okamoto-Aoki spontaneously hypertensive rats (Taconic Farms)
T1 sequence (P49430 1-533): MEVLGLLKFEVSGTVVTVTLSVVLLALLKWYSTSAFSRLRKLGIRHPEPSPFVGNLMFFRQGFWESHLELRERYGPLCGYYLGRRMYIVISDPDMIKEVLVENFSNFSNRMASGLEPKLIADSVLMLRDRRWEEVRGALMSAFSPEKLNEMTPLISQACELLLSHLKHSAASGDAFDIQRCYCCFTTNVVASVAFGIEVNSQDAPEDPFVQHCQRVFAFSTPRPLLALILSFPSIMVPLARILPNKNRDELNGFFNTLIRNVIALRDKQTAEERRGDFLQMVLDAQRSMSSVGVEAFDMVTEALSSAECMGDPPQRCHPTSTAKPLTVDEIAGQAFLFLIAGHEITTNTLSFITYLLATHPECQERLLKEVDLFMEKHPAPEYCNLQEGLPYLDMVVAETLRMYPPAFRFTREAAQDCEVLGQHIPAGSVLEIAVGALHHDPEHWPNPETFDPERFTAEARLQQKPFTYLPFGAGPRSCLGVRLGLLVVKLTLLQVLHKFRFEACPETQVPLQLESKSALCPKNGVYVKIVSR
Protocol: Under urethan anesthesia, about 10 μl arterial blood was collected in approximately 1 ml. of about 3.2% sodium citrate in a polystyrene tube from Okamoto-Aoki spontaneously hypertensive rats (SHR) (Taconic Farms, Germantown, N.Y.) between 19 and 24 weeks in age. The blood was diluted with about 3 ml of cold saline and centrifuged at room temperature for about 15 minutes at 460 xg. The platelet rich plasma (PRP) was separated. The platelets were isolated by centrifuging the PRP for about 10 minutes at 1060 xg and were washed in about 4 ml of cold oxygenated Krebs phosphate buffer, about pH 7.4. The chilled platelets recovered from centrifuging at 800 xg for about 10 minutes were resuspended in oxygenated Krebs phosphate buffer and diluted to contain 4.5-6.0×10^4 platelets/μl.
The inhibition of thromboxane (TX) formation was studied by determining the concentration of thromboxane B2 (TXB2), the stable hydrolysis product of TXA2. Assay samples, prepared on ice, contained about 200 μl platelet suspension, about 50 μl saline and about 50 μl vehicle or drug under study. The samples were incubated for about 10 minutes at about 37° C. in a metabolic shaker. The reaction was terminated by immersing the tubes in an ice bath and adding about 50 μl of approximately 0.5 M citric acid. The samples were centrifuged for about 10 minutes in a refrigerated centrifuge and the supernatants thus obtained were decanted and stored at about-20° C. The TXB2 content for each sample was determined by a direct radioimmunoassay (RIA) utilizing a TXB2 specific RIA kit purchased from New England Nuclear, Boston, Mass. and expressed as pg TXB2 formed minute^-1 sample^-1, from which the percent inhibition of TXB2 formation was calculated.

[2] = system: spontaneously hypertensive rats; test: Hypotensive activity in spontaneously hypertensive rats (mean arterial blood pressure); assay type: in vivo, spontaneously hypertensive rats (Okamoto strain); conditions: oral gavage, about 100 mg/kg or less, two doses 24 h apart, 0.9% NaCl loading with first; about 28 hours after initial dose; SHR average MABP 170±1.5 mm of mercury; (No. of rats) in parentheses
Protocol: The novel compounds of the present invention are active hypotensive agents and were tested for hypotensive activity by the method of P. S. Chan and D. Poorvin, Clinical and Experimental Hypertension, 1 (6), 817-830 (1979). Male, 16 week old, spontaneously hypertensive rats of the Okamoto strain, from Taconic Farms, Germantown, N.Y., having an average mean arterial blood pressure of 170±1.5 mm of mercury are used in the test. One to 3 rats are used per test compound. A rat is dosed by gavage with a test compound, suspended in approximately 2% pre-boiled starch at a concentration of about 50 mg/ml, at a dose of about 100 mg/kg of body weight or less, with approximately 0.9% sodium chloride loading at a dose of about 25 ml/kg of body weight. A second identical dose of the test compound, without sodium chloride loading is given about 24 hours later. At about 28 hours after the initial dose the mean arterial blood pressure is measured by the method of Chan and Poorvin vide supra. The procedure is repeated in a second and third rat when necessary.

inhibition at 100 µM [1] [%] | SMILES | MABP (mean arterial blood pressure) [2] [m Hg]
90 | O=C(NCCn1cncn1)c1sc2ccccc2c1Cl [3-Chloro-N-[2-(1H-1,2,4-triazol-1-yl)ethyl]-benzo[b]thiophene-2-carboxamide] | 
90 | O=C(NCCCCn1cncn1)c1sc2ccccc2c1Cl [3-Chloro-N-[4-(1H-1,2,4-triazol-1-yl)-butyl]benzo[b]thiophene-2-carboxamide] | 119
60 | O=C(NCCCn1cncn1)c1sc2ccccc2c1Cl [3-chloro-N--[3-(1H--1,2,4-triazol-1-yl)propyl]-benzo[b]thiophene-2-carboxamide] | 137
86 | O=C(NCCCn1cncn1)c1cc(Br)c(Br)s1 [4,5-dibromo-N--[3-(1H--1,2,4-triazol-1-yl)-propyl]-2-thiophene-carboxamide] | 137
70 | O=C(NCCCn1cncn1)c1ccc([N+](=O)[O-])o1 [5-Nitro-N-[3-(1H-1,2,4-triazol-y)propyl]-2-furancarboxamide] | 132
61 | O=C(NCCCn1cncn1)c1ccc(Br)o1 [5-bromo-N--[3-(1H--1,2,4-triazol-1-yl)propyl]-2-furancarboxamide] | 107
64 | O=C(NCCCn1cncn1)c1ccc(Cl)s1 [5-chloro-N--[3-(1H--1,2,4-triazol-1-yl)propyl]-2-thiophenecarboxamide] | 135
56 | Cc1ccc(C(=O)NCCCn2cncn2)s1 [5-methyl-N--[3-(1H--1,2,4-triazol-1-yl)propyl]-2-thiophenecarboxamide] | 
84 | O=C(NCCCn1cncn1)c1cc2ccccc2o1 [N--[3-(1H--1,2,4-triazol-1-yl)propyl]-2-benzo-furancarboxamide] | 135
 | O=C(NCCCn1cncn1)c1ccco1 [N--[3-(1H--1,2,4-triazol-1-yl)propyl]-2-furancarboxamide, fumarate] | 116
30 | O=C(NCCCn1cncn1)c1cccs1 [N--[3-(1H--1,2,4-triazol-1-yl)propyl]-2-thio-phenecarboxamide] | 130
68 | O=C(C=Cc1cccs1)NCCCn1cncn1 [N--[3-(1H--1,2,4-triazol-1-yl)propyl]-3-(2-thien-yl)-2-propenamide] | 
55 | O=C(NCCCn1cncn1)c1ccoc1 [N--[3-(1H--1,2,4-triazol-1-yl)propyl]-3-furan-carboxamide] | 135
65 | O=C(NCCCn1cncn1)c1ccco1 [N-[3-(1H-1,2,4-Triazol-1-yl)propyl]-2-furancarboxamide] | 
